The test deals with GAS. The note with it: tested with GAS.

Drawing on patent US12447188B2, “Compositions and methods for the antiseptic treatment of biofilms on mammalian tissue” (Avadim Health IP, Inc., priority 2019, dated 2025), this text covers MBC and MIC for one compound.

Each structure is given as a SMILES string. In brackets after ≈: the same amount, converted by molar mass.

The MBC is the smallest concentration meeting the test's criterion for killing. A higher MBC goes with less potent killing. One may read the MIC as the smallest concentration in the dilution series that meets the test's criterion for growth inhibition. Lower therefore signals greater potency. In turn, `CC[C@H](C)[C@H](NC(=O)[C@H](CCCCN)NC(=O)[C@H](CCC(=O)O)NC(=O)[C@H](CCCCN)NC(=O)[C@H](CO)NC(=O)[C@H](CCCCN)NC(=O)[C@H](CCCNC(=N)N)NC(=O)[C@H](Cc1ccccc1)NC(=O)[C@H](Cc1ccccc1)NC(=O)[C@H](CC(=O)O)NC(=O)CNC(=O)[C@H](CC(C)C)NC(=O)[C@@H](N)CC(C)C)C(=O)NCC(=O)N[C@@H](CCCCN)C(=O)N[C@@H](CCC(=O)O)C(=O)N[C@@H](Cc1ccccc1)C(=O)N[C@@H](CCCCN)C(=O)N[C@@H](CCCNC(=N)N)C(=O)N[C@H](C(=O)N[C@H](C(=O)N[C@@H](CCC(N)=O)C(=O)N[C@@H](CCCNC(=N)N)C(=O)N[C@H](C(=O)N[C@@H](CCCCN)C(=O)N[C@@H](CC(=O)O)C(=O)N[C@@H](Cc1ccccc1)C(=O)N[C@@H](CC(C)C)C(=O)N[C@@H](CCCNC(=N)N)C(=O)N[C@@H](CC(N)=O)C(=O)N[C@@H](CC(C)C)C(=O)N[C@H](C(=O)N1CCC[C@H]1C(=O)N[C@@H](CCCNC(=N)N)C(=O)N[C@H](C(=O)N[C@@H](CCC(=O)O)C(=O)N[C@@H](CO)C(=O)O)[C@@H](C)O)C(C)C)[C@@H](C)CC)C(C)C)[C@@H](C)CC` [Synthetic LL-37 peptide] returned an MBC of 16 µM (≈ 71.9 µg/mL) and an MIC of 16 µM (≈ 71.9 µg/mL).
